From PubChem BioAssay AID256 (DTP/NCI, 2004)
“And” between values parts separate entries of the source, which are not always exact repeats. Equal entries are not always repeated. Toxic doses and inconclusive results are not listed.

Test system: CD2F1 mice, L1210 leukemia ip, survival T/C
Assay: NCI In Vivo Anticancer Drug Screen. Data for tumor model L1210 Leukemia (intraperitoneal) in CD2F1 (CDF1) mice
Details: higher = longer survival
How it was run: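 Tumor-bearing mice (transplanted tumor) were split into treated and vehicle control groups, and the measured endpoint of each treated group was divided by that of its vehicle controls.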

[1] = endpoint: mean survival time, dose: 100.0 mg/kg/injection, schedule: Q01DX009 (ip), vehicle: saline
[2] = endpoint: mean survival time, dose: 200.0 mg/kg/injection, schedule: Q01DX009 (ip), vehicle: saline
[3] = endpoint: mean survival time, dose: 400.0 mg/kg/injection, schedule: Q01DX009 (ip), vehicle: saline
[4] = endpoint: mean survival time, dose: 50.0 mg/kg/injection, schedule: Q01DX009 (ip), vehicle: saline with Tween-80
[5] = endpoint: mean survival time, dose: 100.0 mg/kg/injection, schedule: Q01DX009 (ip), vehicle: saline with Tween-80
[6] = endpoint: mean survival time, dose: 100.0 mg/kg/injection, schedule: Q04DX003 (ip), vehicle: saline with Tween-80
[7] = endpoint: mean survival time, dose: 200.0 mg/kg/injection, schedule: Q01DX009 (ip), vehicle: saline with Tween-80
[8] = endpoint: mean survival time, dose: 200.0 mg/kg/injection, schedule: Q04DX003 (ip), vehicle: saline with Tween-80
[9] = endpoint: mean survival time, dose: 400.0 mg/kg/injection, schedule: Q01DX009 (ip), vehicle: saline with Tween-80

O=c1cnn(C2OC(CO)C(O)C2O)c(=O)[nH]1 (stereo not given)
T/C (endpoint: mean survival time, dose: 12.5 mg/kg/injection, schedule: Q03HX024 (ip), vehicle: saline): 119 % of control
T/C (endpoint: mean survival time, dose: 50.0 mg/kg/injection, schedule: Q01DX005 (ip), vehicle: water): 115 % of control and 120 % of control
T/C (endpoint: mean survival time, dose: 50.0 mg/kg/injection, schedule: Q03HX024 (ip), vehicle: saline): 91 % of control
T/C (endpoint: mean survival time, dose: 100.0 mg/kg/injection, schedule: Q01DX001 (ip), vehicle: saline): 105 % of control
T/C (endpoint: mean survival time, dose: 100.0 mg/kg/injection, schedule: Q01DX005 (ip), vehicle: water): 117 % of control and 121 % of control and 106 % of control
T/C (endpoint: mean survival time, dose: 100.0 mg/kg/injection, schedule: Q01DX009 (ip), vehicle: distilled water + Tween-80): 119 % of control
T/C [1]: 122 % of control
T/C (endpoint: mean survival time, dose: 143.0 mg/kg/injection, schedule: Q03HX016 (ip), vehicle: other): 122 % of control
T/C (endpoint: mean survival time, dose: 200.0 mg/kg/injection, schedule: Q01DX001 (ip), vehicle: saline): 101 % of control
T/C (endpoint: mean survival time, dose: 200.0 mg/kg/injection, schedule: Q01DX005 (ip), vehicle: water): 121 % of control and 123 % of control and 108 % of control
T/C [2]: 86 % of control
T/C (endpoint: mean survival time, dose: 300.0 mg/kg/injection, schedule: Q03HX024 (ip), vehicle: other): 151 % of control
T/C (endpoint: mean survival time, dose: 400.0 mg/kg/injection, schedule: Q01DX001 (ip), vehicle: saline): 108 % of control
T/C (endpoint: mean survival time, dose: 400.0 mg/kg/injection, schedule: Q01DX005 (ip), vehicle: water): 116 % of control
T/C [3]: 94 % of control
T/C (endpoint: mean survival time, dose: 500.0 mg/kg/injection, schedule: Q03HX016 (ip), vehicle: other): 152 % of control
T/C (endpoint: mean survival time, dose: 500.0 mg/kg/injection, schedule: Q03HX024 (ip), vehicle: other): 181 % of control
T/C (endpoint: mean survival time, dose: 800.0 mg/kg/injection, schedule: Q01DX001 (ip), vehicle: saline): 110 % of control
T/C (endpoint: mean survival time, dose: 800.0 mg/kg/injection, schedule: Q01DX005 (ip), vehicle: water): 110 % of control
T/C (endpoint: mean survival time, dose: 800.0 mg/kg/injection, schedule: Q01DX009 (ip), vehicle: distilled water + Tween-80): 154 % of control
T/C (endpoint: mean survival time, dose: 1000.0 mg/kg/injection, schedule: Q03HX016 (ip), vehicle: other): 152 % of control
T/C (endpoint: mean survival time, dose: 1000.0 mg/kg/injection, schedule: Q03HX024 (ip), vehicle: other): 167 % of control
T/C (endpoint: mean survival time, dose: 1600.0 mg/kg/injection, schedule: Q01DX009 (ip), vehicle: distilled water + Tween-80): 160 % of control
T/C (endpoint: mean survival time, dose: 1600.0 mg/kg/injection, schedule: Q01DX009 (ip), vehicle: saline): 121 % of control

CC[N+]1(Cc2ccccc2)CC2(CCCCC2)ON2C1CC(C)C2(C)C (stereo not given)
T/C (endpoint: mean survival time, dose: 25.0 mg/kg/injection, schedule: Q01DX009 (ip), vehicle: saline with Tween-80): 92 % of control
T/C [4]: 93 % of control

O=C(c1ccccc1)C(C(c1ccc([N+](=O)[O-])cc1)N1CCOCC1)N1CCOCC1 (stereo not given)
T/C [5]: 97 % of control
T/C [6]: 101 % of control
T/C [7]: 96 % of control
T/C [8]: 101 % of control
T/C [9]: 96 % of control
T/C (endpoint: mean survival time, dose: 400.0 mg/kg/injection, schedule: Q04DX003 (ip), vehicle: saline with Tween-80): 108 % of control

CCCC(C)CC(=CC(C)(C)C)CC(C)CCC (stereo not given)
T/C [4]: 96 % of control
T/C [5]: 100 % of control
T/C [7]: 100 % of control

c1cc2nc(c1)CSCCCCCCSC2
T/C [5]: 91 % of control
T/C [7]: 90 % of control
T/C [9]: 91 % of control

CCOC(=O)Nc1cc(NCc2ccccc2)c2[nH]cnc2n1
T/C (endpoint: mean survival time, dose: 100.0 mg/kg/injection, schedule: Q01DX001 (ip), vehicle: Klucel (hydroxypropylcellulose) (HPC)): 89 % of control
T/C (endpoint: mean survival time, dose: 200.0 mg/kg/injection, schedule: Q01DX001 (ip), vehicle: Klucel (hydroxypropylcellulose) (HPC)): 95 % of control
T/C (endpoint: mean survival time, dose: 400.0 mg/kg/injection, schedule: Q01DX001 (ip), vehicle: Klucel (hydroxypropylcellulose) (HPC)): 98 % of control

c1cc[c]([Pb]([c]2ccccc2)([c]2ccccc2)[n]2cccc2)cc1
T/C (endpoint: mean survival time, dose: 6.25 mg/kg/injection, schedule: Q01DX009 (ip), vehicle: acetone): 96 % of control
T/C (endpoint: mean survival time, dose: 12.5 mg/kg/injection, schedule: Q01DX009 (ip), vehicle: acetone): 88 % of control
T/C (endpoint: mean survival time, dose: 12.5 mg/kg/injection, schedule: Q04DX003 (ip), vehicle: acetone): 88 % of control
T/C (endpoint: mean survival time, dose: 25.0 mg/kg/injection, schedule: Q04DX003 (ip), vehicle: acetone): 93 % of control

NC(CC(=O)NO)C(=O)O (stereo not given)
T/C (endpoint: mean survival time, dose: 12.5 mg/kg/injection, schedule: Q01DX009 (ip), vehicle: saline): 95 % of control
T/C (endpoint: mean survival time, dose: 25.0 mg/kg/injection, schedule: Q01DX009 (ip), vehicle: saline): 101 % of control
T/C (endpoint: mean survival time, dose: 50.0 mg/kg/injection, schedule: Q01DX009 (ip), vehicle: saline): 101 % of control
T/C [1]: 95 % of control
T/C [2]: 111 % of control and 95 % of control
T/C [3]: 103 % of control

O=c1cc[nH]c(=O)o1
T/C (endpoint: mean survival time, dose: 42.0 mg/kg/injection, schedule: Q01DX009 (ip), vehicle: water): 122 % of control
T/C [6]: 114 % of control
T/C [8]: 92 % of control
T/C (endpoint: median survival time, dose: 63.0 mg/kg/injection, schedule: Q01DX009 (ip), vehicle: water): 87 % of control
